The text below walks through data of patent US20090036469A1, “2,6-SUBSTITUTED-4-MONOSUBSTITUTED AMINO-PYRIMIDINE AS PROSTAGLANDIN D2 RECEPTOR ANTAGONISTS” (SANOFI-AVENTIS, priority 2006, published 2009).

SMILES strings stand for the structures. Structures can show the parent of a compound that is named as a salt.

In the test the target is T1, DP receptor (Homo sapiens, UniProt Q13258).
T1 construct: the human cell line LS174T, which expresses the endogenous DP receptor; endogenous in cells; host or cells: LS174T human cell line
T1 sequence (Q13258 1-359): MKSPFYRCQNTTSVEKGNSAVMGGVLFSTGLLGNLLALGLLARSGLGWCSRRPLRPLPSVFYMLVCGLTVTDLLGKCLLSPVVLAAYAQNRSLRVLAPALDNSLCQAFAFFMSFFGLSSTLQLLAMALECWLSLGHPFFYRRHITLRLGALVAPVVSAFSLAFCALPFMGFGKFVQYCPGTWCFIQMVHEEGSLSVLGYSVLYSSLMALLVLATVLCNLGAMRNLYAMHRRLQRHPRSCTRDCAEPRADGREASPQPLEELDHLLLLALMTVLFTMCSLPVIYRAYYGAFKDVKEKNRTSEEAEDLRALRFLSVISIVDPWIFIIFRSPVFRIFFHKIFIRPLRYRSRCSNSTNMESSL
In words: SPA cAMP assay in human LS174 T cells (human DP functional assay). The note with it: concentration of the compound that produces 50% inhibition in the SPA cAMP assay in human LS174 T cells; PGD2 15 nM final concentration. Format: cell-based. An excerpt: As used in the examples and preparations that follow, as well as the rest of the application, the terms used therein shall have the meanings indicated: “kg” refers to kilograms, “g” refers to grams, “mg” refers to milligrams, “μg” refers to micrograms, “mol” refers to moles, “mmol” refers to millimoles, “M” refers to molar, “mM” refers to millimolar, “μM” refers to micromolar, “nM” refers to nanomolar, “L” refers to liters, “mL” or “ml” refers to milliliters, “μL” refers to microliters, “° C.” refers to degrees Celsius, “mp” or “m.p.” refers to melting point, “bp” or “b.p.” refers to boiling point, “mm of Hg” refers to pressure in millimeters of mercury, “cm” refers to centimeters, “nm” refers to nanometers, “abs.” refers to absolute, “conc.” refers to concentrated, “c” refers to concentration in g/mL, “rt” refers to room temperature, “TLC” refers to thin layer chromatography, “HPLC” refers to high performance liquid chromatography, “i.p.” refers to intraperitoneally, “i.v.” refers to intravenously, “s”=singlet, “d”=doublet; “t”=triplet; “q”=quartet; “m”=multiplet, “dd”=doublet of doublets; “br”=broad, “LC”=liquid chromatograph, “MS”=mass spectrograph, “ESI/MS”=electrospray ionization/mass spectrograph, “RT”=retention time, “M”=molecular ion, “PSI”=pounds per square inch, “DMSO”=dimethyl sulfoxide, “DMF”=N,N-dimethylformamide, “CDI”=1,1′-carbonyldiimidazole, “DCM” or “CH2Cl2”=dichloromethane, “HCl”=hydrochloric acid, “SPA”=Scintillation Proximity Assay, “ATTC”=American Type Culture Collection, “FBS”=Foetal Bovine Serum, “MEM”=Minimal Essential Medium, “CPM”=Counts Per Minute, “EtOAc”=ethyl acetate, “PBS”=Phosphate Buffered Saline, “TMD”=transmembrane domain, “IBMX”=3-isobutyl-1-methylxanthine, “cAMP”=cyclic adenosine monophosphate, “IUPAC”=International Union of Pure and Applied Chemistry, “MHz”=megahertz, “PEG”=polyethylene glycol, “MeOH”=methanol, “N”=normality, “THF”=tetrahydrofuran, “h”=hours, “min”=minute(s), “MeNH2”=methyl amine, “N2”=nitrogen gas, “O.D.”=outer diameter, “MeCN” or “CH3CN”=acetonitrile, “Et2O”=ethyl ether, “Prep LC”=preparatory “flash” liquid chromatography, “SPE”=solid phase extraction, “K2CO3”=potassium carbonate, “Na2CO3”=sodium carbonate, “pmol”=picomolar, “heptane”=n-heptane, “HMBA-AM” resin=4-hydroxymethylbenzoic acid amino methyl resin, “PdCl2(dppf)2”=1,1′-bis(diphenylphosphino)ferrocene-palladium (II) dichloride DCM complex, “˜”=approximately, and “IC50”=concentration of the compound that produces 50% inhibition in the SPA cAMP assay in human LS174 T cells.
The inhibitory effects of the compounds according to the invention are assessed in a human DP functional assay. A cAMP assay is employed using the human cell line LS174T, which expresses the endogenous DP receptor. The protocol is similar to that described previously (Wright D H, Ford-Hutchinson A W, Chadee K, Metters K M, The human prostanoid DP receptor stimulates mucin secretion in LS174T cells, Br J Pharmacol. 131(8):1537-45 (2000)).
Protocol for SPA cAMP Assay in Human LS174 T Cells
Add 50 μL of […] IBMX into 100 mL PBS to make a final concentration of 100 μM and sonicate at 30° C. for 20 minutes.
Dissolve 1 mg PGD2 (FW, 352.5) in 284 μL DMSO to make 10 mM stock solution and store at […]. Before each assay, it is freshly prepared. Add 3 μL of 10 mM stock solution to 20 mL DMSO, mix it thoroughly, and transfer 10 mL to 40 mL PBS.
Compound dilution is carried out in Biomex 2000 (Beckman) using Method 1_cAMP DP 11 points.
5 μL of each compound from the 10 mM stock compound plates is transferred to the wells of a 96-well plate respectively as below.
Fill the plate with 45 μL of DMSO except column 7 is filled with 28 μL DMSO. Pipette column 1 thoroughly, and transfer 12 μL into column 7 parallel. Perform 1:10 serial dilution from column 1 to column 6 and from column 7 to column 11 by transfer 5 μL to 45 μL DMSO to make following concentrations:
Fill a new 96-well plate with 247.5 μL of compound dilution buffer. […]
Regarding `COc1nc(NCCc2ccc(Cl)cc2Cl)cc(N2CCCC(CC(=O)O)C2)n1` (stereo not shown) [Example 8, (1-{6-[2-(2,4-Dichloro-phenyl)-ethylamino]-2-methoxy-pyrimidin-4-yl}-piperidin-3-yl)-acetic acid], the IC50 is 0.5 nM.
The result for `COc1nc(NCCc2ccc(Cl)cc2Cl)cc(N2CCC(C(=O)O)C2)n1` (stereo not shown) [Example 1] reads 9 nM; that for `COc1nc(NCCc2ccc(OC(F)(F)F)cc2)cc(-c2ccc(C(=O)O)s2)n1` [Example 12, 5-{2-Methoxy-6-[2-(4-trifluoromethoxy-phenyl)-ethylamino]-pyrimidin-4-yl}-thiophene-2-carboxylic acid], 2 nM.
In turn, `COc1nc(NCCc2ccc(OC(F)(F)F)cc2)cc(N2CCCC(C(=O)NS(C)(=O)=O)C2)n1` (stereo not shown) [Example 10, N-(1-{2-Methoxy-6-[2-(4-trifluoromethoxy-phenyl)-ethylamino]-pyrimidin-4-yl}-piperidine-3-carbonyl)-methanesulfonamide] yielded an IC50 of 22 nM.
In the case of `COc1nc(NCCc2ccc(Cl)cc2Cl)cc(N2CCCC(C(=O)NS(C)(=O)=O)C2)n1` (stereo not shown) [Example 11(a), N-(1-{6-[2-(2,4-Dichloro-phenyl)-ethylamino]-2-methoxy-pyrimidin-4-yl}-piperidine-3-carbonyl)-methanesulfonamide], the IC50 was determined as 1 nM.
In turn, `COc1nc(NCCc2ccc(OC(F)(F)F)cc2)cc(N2CCCC(C(C)(C)C(=O)O)C2)n1` (stereo not shown) [Example 2, 2-(1-{2-Methoxy-6-[2-(4-trifluoromethoxy-phenyl)-ethylamino]-pyrimidin-4-yl}-piperidin-3-yl)-2-methyl-propionic acid] came in with an IC50 of 2 nM.
Consider `COc1nc(NCCc2ccc(Cl)cc2Cl)cc(-c2ccc3c(c2)CC(C(=O)O)O3)n1` (stereo not shown) [Example 13, 5-{6-[2-(2,4-Dichloro-phenyl)-ethylamino]-2-methoxy-pyrimidin-4-yl}-2,3-dihydro-benzofuran-2-carboxylic acid hydrochloride], for which the IC50 was 2 nM.
For the compound `COc1nc(NCCc2ccc(Cl)cc2Cl)cc(-c2cccc(C(C)(C)C(=O)N3CCSCC3)c2)n1` [Example 7(c), 2-(3-{6-[2-(2,4-Dichloro-phenyl)-ethylamino]-2-methoxy-pyrimidin-4-yl}-phenyl)-2-methyl-1-thiomorpholin-4-yl-propan-1-one], half-maximal inhibition (IC50) was put at 383 nM.
Take `COc1nc(NCCc2ccc(Cl)cc2Cl)cc(N2CCCC(C(=O)NS(=O)(=O)N(C)C)C2)n1` (stereo not shown) [Example 11(h), N,N-Dimethylamide-2-sulfonic acid 1-{6-[2-(2,4-dichloro-phenyl)-ethylamino]-2-methoxy-pyrimidin-4-yl}-piperidine-3-carboxamide]: the midpoint of inhibition, the IC50, lay at 14 nM. This IC50 is about 27-fold lower than that of the compound before.
Take `COc1nc(NCCc2ccc(OC(F)(F)F)cc2)cc(N2CCCC(C(=O)O)C2)n1` (stereo not shown) [Example 9, 1-{2-Methoxy-6-[2-(4-trifluoromethoxy-phenyl)-ethylamino]-pyrimidin-4-yl}-piperidine-3-carboxylic acid]: the IC50 came to 9 nM.
For `COc1nc(NCCc2ccc(Cl)cc2Cl)cc(N2CCCC(N)C2)n1` (stereo not shown) [Example 4, [6-(3-Amino-piperidin-1-yl)-2-methoxy-pyrimidin-4-yl]-[2-(2,4-dichloro-phenyl)-ethyl]-amine], the IC50 worked out at 985 nM.
The compound `COc1nc(NCCc2ccc(Cl)cc2Cl)cc(N2CCCC(C(=O)NS(=O)(=O)C(F)(F)F)C2)n1` (stereo not shown) [Example 11(d), N-(1-{6-[2-(2,4-Dichloro-phenyl)-ethylamino]-2-methoxy-pyrimidin-4-yl}-piperidine-3-carbonyl)-C,C,C-trifluoro-methanesulfonamide] showed an IC50 of 18 nM.
`COc1nc(NCCc2ccc(Cl)cc2Cl)cc(N2CCCC(C(=O)Nc3nnn[nH]3)C2)n1` (stereo not shown) [Example 11(e), 1-{6-[2-(2,4-Dichloro-phenyl)-ethylamino]-2-methoxy-pyrimidin-4-yl}-piperidine-3-carboxylic acid (1H-tetrazol-5-yl)-amide] gave an IC50 of 4.4 nM.
To `COc1nc(NCCc2ccc(Cl)cc2Cl)cc(N2CCC(NC(C)=O)CC2)n1` [Example 5(b), N-(1-{6-[2-(2,4-Dichloro-phenyl)-ethylamino]-2-methoxy-pyrimidin-4-yl}-piperidin-4-yl)-acetamide] belongs 26 nM.
Compound `COc1nc(NCCc2ccc(Cl)cc2Cl)cc(-c2cccc(C(C)(C)C(=O)NS(=O)(=O)C(C)(C)C)c2)n1` [Example 7(a), 2-Methyl-propane-2-sulfonic acid [2-(3-{6-[2-(2,4-dichloro-phenyl)-ethylamino]-2-methoxy-pyrimidin-4-yl}-phenyl)-2-methyl-propionyl]-amide] gave an IC50 of 2 nM.
For the compound `COc1nc(NCCc2ccc(Cl)cc2Cl)cc(-c2cc(C(C)(C)O)cc(C(C)(C)O)c2)n1` [Example 3, 2-[3-{6-[2-(2,4-Dichloro-phenyl)-ethylamino]-2-methoxy-pyrimidin-4-yl}-5-(1-hydroxy-1-methyl-ethyl)-phenyl]-propan-2-ol], half-maximal inhibition (IC50) was put at 730 nM.

What is called IC50 is the point on the concentration scale where inhibition reaches its midpoint.
